Assay: Aerosol purity of condensation aerosol vaporized from drug-coated substrate in substrate screening apparatus (HPLC of filter extract)
Format: physicochemical
Settings: for Aerosol Purity (% ± SD): perforated 304 stainless steel, 0.4 mg/cm^2, approx. 375° C.; for Aerosol Purity (%): 14 μm coating, 30 liters/minute
Text: The substrate screening apparatus 400 is made of a machined plastic (polyoxymethylene, DELRIN® Acetal Resin, DuPont, Wilmington, DE) block 402 with a 2 cm^2 cross-sectional area for mounting a substrate 412. Block 402 includes a first airway 404 extending from first inlet 414 to outlet 422. Block 402 also include a second airway 406 extending from second inlet 416 to substrate 412, where it typically joins the first airway. The substrate 412 is mounted in the substrate screening apparatus 400 across two electrodes 420. A first air flow 414 is established in first airway 404 and a second air flow 416 is established in second airway 406 such that the second air flow 416 passes from the second airway 406 to first airway 404 through holes in the substrate 412. While providing air flows 414 and 416, the substrate 412 is heated, typically by discharging a capacitor (not shown) across the substrate 412. In a one embodiment, the flow of air passing through holes in the substrate 412 is in a direction orthogonal to that of air flow 414. Substrate 412 is coated with a drug composition film. The substrate 412 is heated to vaporized all or a portion of the drug composition. The vaporized drug subsequently cools and condenses to form a condensation aerosol that is carried to the outlet by air flow 414, joined by air flow 416). Accordingly, the condensation aerosol is emitted from the outlet 422.
The test substrates were then coated with a drug composition. The drug was typically dissolved in a volatile organic solvent (e.g., dichloromethane/methanol mixture or acetone or other suitable organic solvent) and then spray-coated onto the test substrates using an automated spray coater. Coating parameters, such as the drug concentration in the coating solution, solution flow rate, were selected to obtain a uniform drug coating of the desired coating density (i.e., mass/area).
Total air flow through the substrate screening apparatus was set by providing air flows 414 and 416 at a desired ratio. (As used herein, “across” air flow refers to air flow 414 and “bottom” air flow refers to air flow 416.) Brass electrodes 420 attached to the substrate screening apparatus 400 were used to clamp the substrate 412 in place and provide electrical connections. For most experiments, a 1-Farad capacitor was used as the energy source. The capacitor was typically charged to 11-14 volts, depending on the desired substrate temperature. A high current relay was used to connect the circuit and discharge the capacitor across the substrate to induce heating and vaporization of the drug.
FIG. 5 is a schematic of another embodiment of a substrate screening apparatus 500 that was used to direct air flow through the holes of coated polyimide film (KAPTON® polyimide film) substrates (see FIGS. 2A and 2B). Substrate screening apparatus 500 is similar in configuration and operation to substrate screening apparatus 400, with the exception that substrate screening apparatus 500 includes two electrodes 502 on the same side of the screening apparatus 500, whereas substrate screening apparatus 400 includes two electrodes 420 on opposite sides of the screening apparatus 400. In the examples using polyimide film substrates described below, a polyimide film substrate coated with a drug composition was placed in substrate screening apparatus 500 across electrodes 502. A computer-controlled power supply was connected to the electrodes. The power supply was typically capable of heating the polyimide film substrate to the target temperature within 300 milliseconds, and the substrate was kept at the target temperature for a duration of 1 second.
To determine aerosol purity and emitted dose, a 2 μm Teflon filter (ZEFLUOR PTFE filters, available from Zefon International, Inc., Ocala, FL) was placed immediately downstream from the screening apparatus during aerosol generation. […]

Compound: C[C@@H]1C[C@H]2[C@@H]3CCC4=CC(=O)C=C[C@]4(C)[C@@]3(Cl)[C@@H](O)C[C@]2(C)[C@@]1(OC(=O)c1ccco1)C(=O)CCl
- aerosol purity (non-perforated SULFINERT-treated and heat-passivated 304 stainless steel, 350° C., no air flow ratio): poor

Compound: CC1(C)O[C@@H]2C[C@H]3[C@@H]4C[C@H](F)C5=CC(=O)C=C[C@]5(C)[C@H]4[C@@H](O)C[C@]3(C)[C@]2(C(=O)CO)O1 [Flunisolide, flunisolide]
- Aerosol Purity (% ± SD) (across:bottom 18:10, hole diameter 0.005″, porosity 5%): 80.1 ± 1.8%
- Aerosol Purity (% ± SD) (across:bottom 18:10, hole diameter 0.005″, porosity 10%): 81.4 ± 0.9%
- Aerosol Purity (% ± SD) (across:bottom 18:10, hole diameter 0.005″, porosity 20%): 90.7 ± 0.7%
- Aerosol Purity (% ± SD) (across:bottom 18:10, hole diameter 0.010″, porosity 5%): 83.6 ± 1.4%
- Aerosol Purity (% ± SD) (across:bottom 18:10, hole diameter 0.010″, porosity 10%): 75.4 ± 1.2%
- Aerosol Purity (% ± SD) (across:bottom 18:10, hole diameter 0.010″, porosity 20%): 80.8 ± 1.4%
- Aerosol Purity (% ± SD) (across:bottom 18:10, hole diameter 0.010″, porosity 40%): 85.6 ± 0.8%
- Aerosol Purity (% ± SD) (across:bottom 18:10, hole diameter 0.020″, porosity 5%): 77.8 ± 2%
- Aerosol Purity (% ± SD) (across:bottom 18:10, hole diameter 0.020″, porosity 10%): 77.2 ± 2.8%
- Aerosol Purity (% ± SD) (across:bottom 18:10, hole diameter 0.020″, porosity 20%): 74.7 ± 1%
- Aerosol Purity (% ± SD) (across:bottom 18:10, hole diameter 0.020″, porosity 40%): 81.9 ± 1.2%
- Aerosol Purity (% ± SD) (across:bottom 18:10, hole diameter 0.040″, porosity 5%): 70.4 ± 1.1%
- Aerosol Purity (% ± SD) (across:bottom 18:10, hole diameter 0.040″, porosity 40%): 77 ± 1%
- Aerosol Purity (% ± SD) (across:bottom 23:5, hole diameter 0.005″, porosity 5%): 73.6 ± 2.3%
- Aerosol Purity (% ± SD) (across:bottom 23:5, hole diameter 0.005″, porosity 10%): 82.7 ± 1.4%
- Aerosol Purity (% ± SD) (across:bottom 23:5, hole diameter 0.005″, porosity 20%): 87.9 ± 2%
- Aerosol Purity (% ± SD) (across:bottom 23:5, hole diameter 0.010″, porosity 5%): 76.1 ± 0.1%
- Aerosol Purity (% ± SD) (across:bottom 23:5, hole diameter 0.010″, porosity 10%): 71.4 ± 0.7%
- Aerosol Purity (% ± SD) (across:bottom 23:5, hole diameter 0.010″, porosity 20%): 80.6 ± 3.1%
- Aerosol Purity (% ± SD) (across:bottom 23:5, hole diameter 0.010″, porosity 40%): 84.2 ± 0.1%
- Aerosol Purity (% ± SD) (across:bottom 23:5, hole diameter 0.020″, porosity 5%): 77.9 ± 1.1%
- Aerosol Purity (% ± SD) (across:bottom 23:5, hole diameter 0.020″, porosity 10%): 72.7 ± 1.8%
- Aerosol Purity (% ± SD) (across:bottom 23:5, hole diameter 0.020″, porosity 20%): 69.9 ± 0.3%
- Aerosol Purity (% ± SD) (across:bottom 23:5, hole diameter 0.020″, porosity 40%): 80 ± 1.3%
- Aerosol Purity (% ± SD) (across:bottom 23:5, hole diameter 0.040″, porosity 5%): 68.6 ± 1.1%
- Aerosol Purity (% ± SD) (across:bottom 23:5, hole diameter 0.040″, porosity 40%): 74.3 ± 7.3%

Compound: CN1CCN(CCCN2c3ccccc3Sc3ccc(Cl)cc32)CC1 [Prochlorperazine, prochlorperazine]
- Coated Aerosol Purity (%) (coated drug on polyimide film, coating thickness 14 μm): 98.85%
- aerosol purity (perforated polyimide film, 100% of air flow through the substrate, up to at least 30 μm coating thickness, 28.3 liters/minute): ≥ 98%
- Aerosol Purity (%) (perforated polyimide film, large holes, across:bottom 75:25): 97.7%
- Aerosol Purity (%) (perforated polyimide film, large holes, across:bottom 100:0): 97.1%
- Aerosol Purity (%) (perforated polyimide film, small holes, across:bottom 75:25): 97.4%
- Aerosol Purity (%) (perforated polyimide film, small holes, across:bottom 100:0): 94.8%

Compound: NCC(CC(=O)O)c1ccc(Cl)cc1 (stereo not drawn) [baclofen]
- drug purity (aerosol) (perforated polyimide film, across:bottom 27:1, 350° C.): around 20%

Compound: CCC(=O)O[C@]1(C(=O)SCF)[C@H](C)C[C@H]2[C@@H]3C[C@H](F)C4=CC(=O)C=C[C@]4(C)[C@@]3(F)[C@@H](O)C[C@@]21C [fluticasone propionate]
- aerosol purity (perforated polyimide film, all four test conditions (3:1 and 1:3, 325° C. and 350° C.)): > 97%

Compound: CCCc1nn(C)c2c(=O)[nH]c(-c3cc(S(=O)(=O)N4CCN(C)CC4)ccc3OCC)nc12 [sildenafil free base, sildenafil]
- aerosol purity (perforated 316 stainless steel, 1:9 across:bottom, drug coating thicknesses up to 6 μm, 28.3 liters/minute): ≥ 97%
- aerosol purity (solid 304 stainless steel, 100% air flow across, drug coating thickness 2 μm): ≤ 94%
- aerosol purity (solid 304 stainless steel, 100% air flow across, drug coating thicknesses greater than about 1 μm): below 97%

Compound: cyclobenzaprine fumarate
- aerosol purity (perforated polyimide film, all three test conditions (6:1 at 375° C., 3:1 at 350° C., 1:1 at 350° C.)): > 99.7%

Source: patent US12138383B2, “Heating unit for use in a drug delivery device” (ALEXZA PHARMACEUTICALS, INC., priority 2007, dated 2024)
